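Dose response: 5 concentrations. Exposure: 48 h. Format: 96-well plates. Endpoint: linear interpolation; highest concentration if not reached. At the GI50, growth is halved. The concentration for full growth arrest is given as TGI.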
Legend:
Test in all cases: DTP human tumour cell line panel, 48 h
[1] = system: SF-295 CNS
[2] = system: M14 melanoma
[3] = system: DU-145 prostate
[4] = system: UACC-257 melanoma
[5] = system: 786-0 renal
[6] = system: SNB-75 CNS
[7] = system: MDA-MB-435
[8] = system: SF-268 CNS
[9] = system: HCT-15 colon
[10] = system: LOX IMVI melanoma
[11] = system: SK-MEL-5 melanoma
[12] = system: EKVX NSCLC
[13] = system: SR leukemia
[14] = system: T-47D breast
[15] = system: BT-549 breast
[16] = system: KM12 colon
[17] = system: SF-539 CNS
[18] = system: RXF 393 renal
[19] = system: OVCAR-8 ovarian
[20] = system: HT29 colon
[21] = system: HCT-116 colon
[22] = system: NCI/ADR-RES ovarian
[23] = system: OVCAR-3 ovarian
[24] = system: MDA-MB-231 breast
[25] = system: HS 578T breast
[26] = system: A549 NSCLC
[27] = system: NCI-H226 lung
[28] = system: OVCAR-4 ovarian
[29] = system: U251 CNS
[30] = system: COLO 205 colon
[31] = system: MALME-3M melanoma
[32] = system: NCI-H522 lung
[33] = system: TK-10 renal
[34] = system: SN12C renal
[35] = system: OVCAR-5 ovarian
[36] = system: SK-MEL-2 melanoma
[37] = system: SK-OV-3 ovarian
[38] = system: HOP-92 NSCLC
[39] = system: UACC-62 melanoma
[40] = system: SNB-19 CNS
[41] = system: PC-3 prostate
[42] = system: NCI-H460 lung
[43] = system: UO-31 renal
[44] = system: MCF7 breast
[45] = system: MOLT-4 leukemia
[46] = system: K-562 leukemia
[47] = system: NCI-H23 lung
[48] = system: IGROV1 ovarian
[49] = system: SW-620 colon
[50] = system: HOP-62 NSCLC
[51] = system: CAKI-1 renal
[52] = system: HL-60(TB) leukemia
[53] = system: CCRF-CEM leukemia
[54] = system: SK-MEL-28 melanoma
[55] = system: ACHN renal
[56] = system: RPMI-8226 leukemia

CC(=O)C(C=O)C(C)=O.CC(=O)CC(C)=O.CC(=O)CC(C)=O.[Ru]
GI50 [1]: 16.2 µM | TGI [1]: 68 µM | GI50 [2]: 49.4 µM | TGI [2]: > 100 µM | GI50 [3]: 37.8 µM | TGI [3]: > 100 µM | GI50 [4]: 32.9 µM | TGI [4]: > 100 µM | GI50 [5]: 37.3 µM | TGI [5]: > 100 µM | GI50 [6]: > 100 µM | TGI [6]: > 100 µM | GI50 [7]: 43.5 µM | TGI [7]: > 100 µM | GI50 [8]: 34.8 µM | TGI [8]: > 100 µM | GI50 [9]: 11.7 µM | TGI [9]: 93.6 µM | GI50 [10]: 13.6 µM | TGI [10]: 80.3 µM | GI50 [11]: 0.0279 µM | TGI [11]: 2.1 µM | GI50 [12]: 18.1 µM | TGI [12]: 95.9 µM | GI50 [13]: 18.2 µM | TGI [13]: 92.6 µM | GI50 [14]: 32.7 µM | TGI [14]: > 100 µM | GI50 [15]: 7.27 µM | TGI [15]: 69.5 µM | GI50 [16]: 27.2 µM | TGI [16]: > 100 µM | GI50 [17]: 3.8 µM | TGI [17]: 26.3 µM | GI50 [18]: 40.9 µM | TGI [18]: > 100 µM | GI50 [19]: 17.4 µM | TGI [19]: > 100 µM | GI50 [20]: 21 µM | TGI [20]: > 100 µM | GI50 [21]: 21.8 µM | TGI [21]: > 100 µM | GI50 [22]: 21.8 µM | TGI [22]: 95 µM | GI50 [23]: 2.15 µM | TGI [23]: 26.3 µM | GI50 [24]: 15.7 µM | TGI [24]: 68.8 µM | GI50 [25]: 0.0635 µM | TGI [25]: 4.2 µM | GI50 [26]: 33.5 µM | TGI [26]: > 100 µM | GI50 [27]: 5.83 µM | TGI [27]: 35.2 µM | GI50 [28]: 19.5 µM | TGI [28]: > 100 µM | GI50 [29]: 29.1 µM | TGI [29]: > 100 µM | GI50 [30]: 29.9 µM | TGI [30]: > 100 µM | GI50 [31]: 24.6 µM | TGI [31]: 96.9 µM | GI50 [32]: 16.4 µM | TGI [32]: 55.1 µM | GI50 [33]: 38.9 µM | TGI [33]: > 100 µM | GI50 [34]: 1.97 µM | TGI [34]: 9.18 µM | GI50 [35]: 32.2 µM | TGI [35]: > 100 µM | GI50 [36]: 24.3 µM | TGI [36]: > 100 µM | GI50 [37]: 76.8 µM | TGI [37]: > 100 µM | GI50 [38]: 17.4 µM | TGI [38]: 94.1 µM | GI50 [39]: 0.589 µM | TGI [39]: 19.1 µM | GI50 [40]: 52.1 µM | TGI [40]: > 100 µM | GI50 [41]: 13.2 µM | TGI [41]: 71.2 µM | GI50 [42]: 28.5 µM | TGI [42]: > 100 µM | GI50 [43]: 26.9 µM | TGI [43]: > 100 µM | GI50 [44]: 35.4 µM | TGI [44]: > 100 µM | GI50 [45]: 28.6 µM | TGI [45]: > 100 µM | GI50 [46]: 20.7 µM | TGI [46]: > 100 µM | GI50 [47]: 12.1 µM | TGI [47]: 44.3 µM | GI50 [48]: 20.4 µM | TGI [48]: 73.3 µM | GI50 [49]: 15.6 µM | TGI [49]: 69 µM | GI50 [50]: 32.4 µM | TGI [50]: > 100 µM | GI50 [51]: 27.5 µM | TGI [51]: 72.4 µM | GI50 [52]: 30.4 µM | TGI [52]: > 100 µM | GI50 [53]: 5.62 µM | TGI [53]: 21.8 µM | GI50 [54]: 48.8 µM | TGI [54]: > 100 µM | GI50 [55]: 21 µM | TGI [55]: > 100 µM

N=C1/C(=C2\Nc3ccccc3S2)CC(=O)N1c1ccc(SC(F)F)cc1
GI50 [1]: 1.1 µM | TGI [1]: 9.32 µM | GI50 [2]: 33.2 µM | TGI [2]: > 100 µM | GI50 [3]: 77.1 µM | TGI [3]: > 100 µM | GI50 [4]: > 100 µM | TGI [4]: > 100 µM | GI50 [5]: 3.23 µM | TGI [5]: > 100 µM | GI50 [6]: 0.17 µM | TGI [6]: 1.15 µM | GI50 [7]: 7.69 µM | TGI [7]: > 100 µM | GI50 [8]: 4.45 µM | TGI [8]: > 100 µM | GI50 [9]: 0.347 µM | TGI [9]: > 100 µM | GI50 [10]: 2.21 µM | TGI [10]: > 100 µM | GI50 [11]: 5.85 µM | TGI [11]: > 100 µM | GI50 [12]: 24.5 µM | TGI [12]: > 100 µM | GI50 [13]: 2.21 µM | TGI [13]: > 100 µM | GI50 [14]: 27.8 µM | TGI [14]: > 100 µM | GI50 [15]: > 100 µM | TGI [15]: > 100 µM | GI50 [16]: 8.13 µM | TGI [16]: > 100 µM | GI50 [17]: 4.09 µM | TGI [17]: 28 µM | GI50 [18]: 2.81 µM | TGI [18]: 25.7 µM | GI50 [19]: 7.42 µM | TGI [19]: > 100 µM | GI50 [56]: 0.626 µM | TGI [56]: 66 µM | GI50 [20]: 1.99 µM | TGI [20]: > 100 µM | GI50 [21]: 8.89 µM | TGI [21]: > 100 µM | GI50 [22]: 6.52 µM | TGI [22]: > 100 µM | GI50 [23]: 17.1 µM | TGI [23]: > 100 µM | GI50 [24]: 24.6 µM | TGI [24]: > 100 µM | GI50 [25]: 2.17 µM | TGI [25]: 29.2 µM | GI50 [26]: 3.75 µM | TGI [26]: > 100 µM | GI50 [27]: 60.9 µM | TGI [27]: > 100 µM | GI50 [28]: 0.969 µM | TGI [28]: 52.2 µM | GI50 [29]: 2.74 µM | TGI [29]: 29.7 µM | GI50 [30]: 11.2 µM | TGI [30]: > 100 µM | GI50 [31]: > 100 µM | TGI [31]: > 100 µM | GI50 [32]: 17.3 µM | TGI [32]: > 100 µM | GI50 [33]: 22 µM | TGI [33]: > 100 µM | GI50 [34]: > 100 µM | TGI [34]: > 100 µM | GI50 [35]: 8.88 µM | TGI [35]: 79.4 µM | GI50 [36]: 27.3 µM | TGI [36]: > 100 µM | GI50 [37]: 8.6 µM | TGI [37]: > 100 µM | GI50 [39]: 24 µM | TGI [39]: > 100 µM | GI50 [40]: 29.1 µM | TGI [40]: > 100 µM | GI50 [41]: 3.55 µM | TGI [41]: 93.5 µM | GI50 [42]: 0.81 µM | TGI [42]: 30.9 µM | GI50 [43]: 7.38 µM | TGI [43]: > 100 µM | GI50 [44]: 9.35 µM | TGI [44]: > 100 µM | GI50 [45]: 1.42 µM | TGI [45]: > 100 µM | GI50 [46]: 1.65 µM | TGI [46]: > 100 µM | GI50 [47]: 18.7 µM | TGI [47]: > 100 µM | GI50 [48]: 5.07 µM | TGI [48]: > 100 µM | GI50 [49]: 5.37 µM | TGI [49]: > 100 µM | GI50 [50]: 1.49 µM | TGI [50]: 14.7 µM | GI50 [51]: 8.7 µM | TGI [51]: > 100 µM | GI50 [52]: 5.02 µM | TGI [52]: > 100 µM | GI50 [53]: 0.839 µM | TGI [53]: > 100 µM | GI50 [54]: 4.38 µM | TGI [54]: > 100 µM | GI50 [55]: 6.98 µM | TGI [55]: > 100 µM

Source: PubChem BioAssay (NCI)
